{
  "source": "patent US11807644B2",
  "about": "(PMV Pharmaceuticals, Inc., priority 2020, dated 2023)",
  "data": [
    {"molecular_target": "T1, recombinant His-tag Y220C p53 DBD protein (Homo sapiens, UniProt P04637, Y220C)", "T1 construct": "recombinant His-tag Y220C p53 DBD protein (amino acids #˜94-312)", "test": "In vitro DNA binding activity assay (TR-FRET): binding of His-tag Y220C p53 DBD to biotin-labeled consensus DNA", "assay_type": "biochemical", "settings": "SC150 = concentration to increase DNA binding by […], His-tag Y220C p53 DBD, biotin-labeled consensus DNA", "values": [
      {"smiles": "CCn1ccc(C(=O)NCc2nc(-c3cc4c(N[C@@H]5CCN(C)C[C@@H]5F)cccc4n3CC(F)(F)F)no2)c1", "note": "(racemic) [Compound 179B, (+/−)-1-ethyl-N-{[3-(4-{[(3R,4S)-3-fluoro-1-methylpiperidin-4-yl]amino}-1-(2,2,2-trifluoroethyl)-1H-indol-2-yl)-1,2,4-oxadiazol-5-yl]methyl}-1H-pyrrole-3-carboxamide]", "Y220C SC150 (μM)": "* (* = 0 μM ≤ SC150 < 0.1 μM)"},
      {"smiles": "CN1CC[C@@H](Nc2cccc3c2cc(-c2noc(CNC(=O)c4ccc(C(C)(C)C)s4)n2)n3CC(F)(F)F)[C@@H](F)C1", "note": "[Compound 422B, 5-tert-butyl-N-[[3-[4-[[(3S,4R)-3-fluoro-1-methyl-4-piperidyl]amino]-1-(2,2,2-trifluoroethyl)indol-2-yl]-1,2,4-oxadiazol-5-yl]methyl]thiophene-2-carboxamide]", "Y220C SC150 (μM)": "* (* = 0 μM ≤ SC150 < 0.1 μM)"},
      {"smiles": "CC(C)(C)n1ccc(C(=O)NCc2nc(-c3cc4c(N[C@@H]5CCOC[C@H]5F)cccc4n3CC(F)(F)F)no2)c1", "note": "[Compound 512B, 1-tert-butyl-N-{[3-(4-{[(3S,4R)-3-fluorooxan-4-yl]amino}-1-(2,2,2-trifluoroethyl)-1H-indol-2-yl)-1,2,4-oxadiazol-5-yl]methyl}-1H-pyrrole-3-carboxamide]", "Y220C SC150 (μM)": "* (* = 0 μM ≤ SC150 < 0.1 μM)"},
      {"smiles": "CN1CC[C@@H](Nc2cccc3c2cc(-c2ccc(CNC(=O)C4CC4)s2)n3CC(F)(F)F)[C@@H](F)C1", "note": "(racemic) [Compound 103B, (+/−)-N-{[5-(4-{[(3R,4S)-3-fluoro-1-methylpiperidin-4-yl]amino}-1-(2,2,2-trifluoroethyl)-1H-indol-2-yl)thiophen-2-yl]methyl}cyclopropanecarboxamide]", "Y220C SC150 (μM)": "* (* = 0 μM ≤ SC150 < 0.1 μM)"},
      {"smiles": "CCN1CC[C@@H](Nc2cccc3c2cc(-c2noc(CNC(=O)c4cn(C(C)(C)C)cn4)n2)n3CC(F)(F)F)[C@@H](F)C1", "note": "[Compound 305B, 1-tert-butyl-N-{[3-(4-{[(3S,4R)-1-ethyl-3-fluoropiperidin-4-yl]amino}-1-(2,2,2-trifluoroethyl)-1H-indol-2-yl)-1,2,4-oxadiazol-5-yl]methyl}-1H-imidazole-4-carboxamide]", "Y220C SC150 (μM)": "* (* = 0 μM ≤ SC150 < 0.1 μM)"},
      {"smiles": "COc1cccc(C(=O)NCc2nnc(-c3cc4c(N[C@H]5CCN(C)C[C@H]5F)cccc4n3CC(F)(F)F)o2)c1", "note": "(racemic) [Compound 119B, (+/−)-N-{[5-(4-{[(3R,4S)-3-fluoro-1-methylpiperidin-4-yl]amino}-1-(2,2,2-trifluoroethyl)-1H-indol-2-yl)-1,3,4-oxadiazol-2-yl]methyl}-3-methoxybenzamide]", "Y220C SC150 (μM)": "** (** = 0.1 μM ≤ SC150 < 0.5 μM)"},
      {"smiles": "CCn1ccc(C(=O)NCc2nc(-c3cc4c(N[C@@H]5CCN(C)C[C@@H]5F)cccc4n3CC(F)(F)F)no2)c1", "note": "[Compound 186B, 1-ethyl-N-{[3-(4-{[(3S,4R)-3-fluoro-1-methylpiperidin-4-yl]amino}-1-(2,2,2-trifluoroethyl)-1H-indol-2-yl)-1,2,4-oxadiazol-5-yl]methyl}-1H-pyrrole-3-carboxamide]", "Y220C SC150 (μM)": "* (* = 0 μM ≤ SC150 < 0.1 μM)"},
      {"smiles": "CCN1CC[C@@H](Nc2cccc3c2cc(-c2noc(CNC(=O)c4ccn(CC(=O)N(C)C)c4)n2)n3CC(F)(F)F)[C@@H](F)C1", "note": "[Compound 365B, 1-[(dimethylcarbamoyl)methyl]-N-{[3-(4-{[(3S,4R)-1-ethyl-3-fluoropiperidin-4-yl]amino}-1-(2,2,2-trifluoroethyl)-1H-indol-2-yl)-1,2,4-oxadiazol-5-yl]methyl}-1H-pyrrole-3-carboxamide]", "Y220C SC150 (μM)": "* (* = 0 μM ≤ SC150 < 0.1 μM)"},
      {"smiles": "COCc1ccc(C(=O)NCc2nc(-c3cc4c(N[C@@H]5CCN(C)C[C@@H]5F)cccc4n3CC(F)(F)F)no2)s1", "note": "[Compound 458B, N-{[3-(4-{[(3S,4R)-3-fluoro-1-methylpiperidin-4-yl]amino}-1-(2,2,2-trifluoroethyl)-1H-indol-2-yl)-1,2,4-oxadiazol-5-yl]methyl}-5-(methoxymethyl)thiophene-2-carboxamide]", "Y220C SC150 (μM)": "* (* = 0 μM ≤ SC150 < 0.1 μM)"},
      {"smiles": "COCC(C)(C)n1cc(C(=O)NCc2nc(-c3cc4c(N[C@H]5CCN(C(C)(C)C)C[C@@H]5F)cccc4n3CC(F)(F)F)no2)cn1", "note": "(racemic) [Compound 411B, N-{[3-(4-{[(3R,4R)-1-tert-butyl-3-fluoropiperidin-4-yl]amino}-1-(2,2,2-trifluoroethyl)-1H-indol-2-yl)-1,2,4-oxadiazol-5-yl]methyl}-1-(1-methoxy-2-methylpropan-2-yl)-1H-pyrazole-4-carboxamide]", "Y220C SC150 (μM)": "* (* = 0 μM ≤ SC150 < 0.1 μM)"},
      {"smiles": "CN1CCN(C[C@@H]2C[C@H]2C(=O)NCc2nc(-c3cc4c(N[C@@H]5CCN(C)C[C@@H]5F)cccc4n3CC(F)(F)F)no2)CC1", "note": "[Compound 234B, (1R,2R)-N-{[3-(4-{[(3S,4R)-3-fluoro-1-methylpiperidin-4-yl]amino}-1-(2,2,2-trifluoroethyl)-1H-indol-2-yl)-1,2,4-oxadiazol-5-yl]methyl}-2-[(4-methylpiperazin-1-yl)methyl]cyclopropane-1-carboxamide]", "Y220C SC150 (μM)": "* (* = 0 μM ≤ SC150 < 0.1 μM)"},
      {"smiles": "CN1CC[C@@H](Nc2cccc3c2cc(-c2ncc(CNC(=O)c4ccccc4)s2)n3CC(F)(F)F)[C@@H](F)C1", "note": "(racemic) [Compound 91B, (+/−)-N-{[2-(4-{[(3R,4S)-3-fluoro-1-methylpiperidin-4-yl]amino}-1-(2,2,2-trifluoroethyl)-1H-indol-2-yl)-1,3-thiazol-5-yl]methyl}benzamide]", "Y220C SC150 (μM)": "* (* = 0 μM ≤ SC150 < 0.1 μM)"},
      {"smiles": "COc1cc(S(C)(=O)=O)ccc1NCc1nnc(-c2cc3c(N[C@H]4CCN(C)C[C@H]4F)cccc3n2CC(F)(F)F)s1", "note": "[Compound 61B, N-[(3R,4S)-3-fluoro-1-methylpiperidin-4-yl]-2-(5-{[(4-methanesulfonyl-2-methoxyphenyl)amino]methyl}-1,3,4-thiadiazol-2-yl)-1-(2,2,2-trifluoroethyl)-1H-indol-4-amine]", "Y220C SC150 (μM)": "* (* = 0 μM ≤ SC150 < 0.1 μM)"},
      {"smiles": "COCC1(c2cc(C(=O)NCc3nc(-c4cc5c(N[C@@H]6CCN(C)C[C@@H]6F)cccc5n4CC(F)(F)F)no3)cs2)CC1", "note": "[Compound 488B, N-{[3-(4-{[(3S,4R)-3-fluoro-1-methylpiperidin-4-yl]amino}-1-(2,2,2-trifluoroethyl)-1H-indol-2-yl)-1,2,4-oxadiazol-5-yl]methyl}-5-[1-(methoxymethyl)cyclopropyl]thiophene-3-carboxamide]", "Y220C SC150 (μM)": "* (* = 0 μM ≤ SC150 < 0.1 μM)"},
      {"smiles": "CN1CC[C@H](Nc2cccc3c2cc(-c2nnc(CNc4cccc(S(C)(=O)=O)c4)o2)n3CC(F)(F)F)[C@H](F)C1", "note": "(racemic) [Compound 122B, (+/−)-N-[(3R,4S)-3-fluoro-1-methylpiperidin-4-yl]-2-(5-{[(3-methanesulfonylphenyl)amino]methyl}-1,3,4-oxadiazol-2-yl)-1-(2,2,2-trifluoroethyl)-1H-indol-4-amine]", "Y220C SC150 (μM)": "** (** = 0.1 μM ≤ SC150 < 0.5 μM)"},
      {"smiles": "CN1CCC(Nc2cccc3c2cc(-c2nnc(CNC(=O)[C@@H]4C[C@@H]4C(=O)O)s2)n3CC(F)(F)F)CC1", "note": "(racemic) [Compound 81B, (+/−)-(1R,2S)-2-{[(5-{4-[(1-methylpiperidin-4-yl)amino]-1-(2,2,2-trifluoroethyl)-1H-indol-2-yl}-1,3,4-thiadiazol-2-yl)methyl]carbamoyl}cyclopropane-1-carboxylic acid]", "Y220C SC150 (μM)": "** (** = 0.1 μM ≤ SC150 < 0.5 μM)"},
      {"smiles": "CN1CC[C@@H](Nc2cccc3c2cc(-c2noc(CNC(=O)c4cncn4CCF)n2)n3CC(F)(F)F)[C@@H](F)C1", "note": "[Compound 556B, N-{[3-(4-{[(3S,4R)-3-fluoro-1-methylpiperidin-4-yl]amino}-1-(2,2,2-trifluoroethyl)-1H-indol-2-yl)-1,2,4-oxadiazol-5-yl]methyl}-1-(2-fluoroethyl)-1H-imidazole-5-carboxamide]", "Y220C SC150 (μM)": "* (* = 0 μM ≤ SC150 < 0.1 μM)"},
      {"smiles": "COC(=O)NCc1nnc(-c2cc3c(N[C@@H]4CCN(C)C[C@@H]4F)cccc3n2CC(F)(F)F)s1", "note": "(racemic) [Compound 38B, (+/−)-methyl N-{[5-(4-{[(3R,4S)-3-fluoro-1-methylpiperidin-4-yl]amino}-1-(2,2,2-trifluoroethyl)-1H-indol-2-yl)-1,3,4-thiadiazol-2-yl]methyl}carbamate]", "Y220C SC150 (μM)": "* (* = 0 μM ≤ SC150 < 0.1 μM)"},
      {"smiles": "CC(C)(C)N1CCC(Nc2cccc3c2cc(-c2noc(CNC(=O)c4cnn(C(C)(C)C)c4)n2)n3CC(F)(F)F)[C@@H](F)C1", "note": "(stereo in doubt) [Compound 400B, 1-tert-butyl-N-{[3-(4-{[(3S,4R)-1-tert-butyl-3-fluoropiperidin-4-yl]amino}-1-(2,2,2-trifluoroethyl)-1H-indol-2-yl)-1,2,4-oxadiazol-5-yl]methyl}-1H-pyrazole-4-carboxamide]", "Y220C SC150 (μM)": "* (* = 0 μM ≤ SC150 < 0.1 μM)"}
    ]},
    {"molecular_target": "T1, recombinant His-tag Y220C p53 DBD protein", "test": "In vitro DNA binding activity assay (TR-FRET): binding of His-tag Y220C p53 DBD to biotin-labeled consensus DNA", "assay_type": "biochemical", "settings": "concentration to increase DNA binding by […], incubated at either 27° C. or 29° C. for 60 min", "values": [
      {"smiles": "CC(C)(C#N)c1ccc(NC(=O)NCc2ccc(-c3cc4c(NC5CCS(=O)(=O)CC5)cccc4n3CC(F)(F)F)cc2)cn1", "note": "[Compound 18A, 3-[6-(1-cyano-1-methylethyl)pyridin-3-yl]-1-[(4-{4-[(1,1-dioxo-1λ^6-thian-4-yl)amino]-1-(2,2,2-trifluoroethyl)-1H-indol-2-yl}phenyl)methyl]urea]", "SC150 (μM)": "+ (+ = 0 μM ≤ SC150 < 2 μM)"},
      {"smiles": "O=C(NCc1ccc(-c2cc3c(NC4CCS(=O)(=O)CC4)cccc3n2CC(F)(F)F)cc1)c1ccc(Cl)cc1", "note": "[Compound 17A, 4-chloro-N-[(4-{4-[(1,1-dioxo-1λ^6-thian-4-yl)amino]-1-(2,2,2-trifluoroethyl)-1H-indol-2-yl}phenyl)methyl]benzamide]", "SC150 (μM)": "++ (++ = 2 μM ≤ SC150 < 5 μM)"},
      {"smiles": "Cc1ccc(NCc2ccc(-c3cc4c(NC5CCN(C6CCOCC6)CC5)cccc4n3CC(F)(F)F)cc2)cn1", "note": "[Compound 31A, 2-(4-{[(6-methylpyridin-3-yl)amino]methyl}phenyl)-N-[1-(oxan-4-yl)piperidin-4-yl]-1-(2,2,2-trifluoroethyl)-1H-indol-4-amine]", "SC150 (μM)": "+ (+ = 0 μM ≤ SC150 < 2 μM)"}
    ]}
  ]
}
